Laboratory results: US11623002B2, “ALK polypeptides and methods of use thereof” (Elicio Therapeutics, Inc., priority 2016, dated 2023)
Entries after “also recorded” stand apart in the source; their conditions may differ.

Legend:
CD4 T-cell = assay: Intracellular cytokine staining (ICS), CD4 T-cell response to individual ALK polypeptides; type: cell-based; details: spleen and lymph node cells of mice immunized with SEQ ID NOs: 1-59 mixed with Freund's adjuvant; re-stimulated with individual ALK polypeptides; FIGS. 2A and 2B
Text: (§1) To identify the immunodominant ALK polypeptides, mice were immunized with ALK polypeptides having the sequences of SEQ ID NOs: 1-59 listed in Table 1A mixed with Freund's adjuvant. Spleens and lymph nodes were then removed from immunized mice and assayed by intracellular cytokine staining (ICS).

CD8 T-cell = assay: Intracellular cytokine staining (ICS), CD8 T-cell response to individual ALK polypeptides; type: cell-based; details: spleen and lymph node cells of mice immunized with SEQ ID NOs: 1-59 mixed with Freund's adjuvant; re-stimulated with individual ALK polypeptides; FIGS. 2C and 2D
Text: as §1

| Sequence | CD4 T-cell responses (ICS) (CD4 T-cell) | CD8 T-cell response (ICS) (CD8 T-cell) |
| --- | --- | --- |
| GDLKSFLRETRPRPS [SEQ ID NO: 22] | strongest CD4 T-cell responses |  |
| KNCPGPVYRIMTQCW [SEQ ID NO: 52] | strongest CD4 T-cell responses |  |
| LDFLMEALIISKFNH [SEQ ID NO: 14] | strongest CD4 T-cell responses | strongest CD8 T-cell response |
| LTCPGPGRVAKIGDF [SEQ ID NO: 33] |  | strongest CD8 T-cell response; also recorded: CD8 T-cell (CD8) stimulating sequence |
| PSPLQVAVRTLPEVC [SEQ ID NO: 10] | strongest CD4 T-cell responses | strongest CD8 T-cell response |
| PVYRIMTQCWQHQPE [SEQ ID NO: 53] | strongest CD4 T-cell responses |  |
| QNIVRCIGVSLQSLP [SEQ ID NO: 17] | strongest CD4 T-cell responses |  |
